Source: patent US9302991B2, “Arylamide derivatives as TTX-S blockers” (RaQualia Pharma Inc., priority 2010, dated 2016)
pIC50: −log10 of the molar value.

Columns and labels:
human Nav1.3 channels = molecular target: T1, human Nav1.3 channels (Homo sapiens, UniProt Q9NY46); experiment: FRET assay, human Nav1.3 (EFS on FDSS); assay type: cell-based; conditions: HEK293 cells expressing human Nav1.3, read-out: IC50 against Nav1.3
T1 construct: expressed in transfected cells; host or cells: HEK293
Procedure: The inhibitory activities of compounds against voltage gated sodium channels are determined by methodology well known in the art.
The ability of the aryl substituted carboxamide derivatives of the formula (I) to inhibit the NaV1.3, Nav1.7 and Nav1.5 channels is measured by Fluorescence Resonance Energy Transfer (FRET) assay and electrophysiology assay described below.
This screen is used to determine the effects of compounds on human Nav1.3, human Nav1.7, and human Nav1.5 channels, utilising electrical field stimulation (EFS) system in 96-well plate format on FDSS (Hamamatsu Photonics) platform. The change of membrane potential is monitored with FRET dye pair, oxonol (DiSBAC2(3)) and coumarin (CC2-DMPE).
Each HEK293 cells expressing human Nav1.3 channels and HEK293 cells expressing human Nav1.5 channels are grown in T225 flasks, in a 5% CO2 humidified incubator to about 80% confluence. Media composition consists of Dulbecco's Modified Eagle Medium (high glucose), 10% FCS, 100 units/mL Penicillin, 100 microgram/mL Streptomycin and 500 microgram/mL Geneticine.
Protocol: • Seed each cell lines (1×10^5 cells/well) into poly-D-lysine coated 96-well plates prior to experimentation. • Incubate at 37° C. in 5% CO2 for 24 hours. • Wash each well with assay buffer (140 mM NaCl, 4.5 mM KCl, 10 mM D-Glucose, 2 mM CaCl2, 1 mM MgCl2, 10 mM HEPES, pH 7.4 adjusted with NaOH) twice. • Add 1st loading solution containing 10 microM CC2-DMPE and 0.06% Pluronic F-127 in assay buffer. • Incubate the plate at room temperature in dark for 1 hour. • Remove 1st loading solution and added 2nd loading solution containing 15 microM DiSBAC2(3), 0.555 mM VABSC-1 and 0.004% Pluronic F-127 in assay buffer. • Place the plate under the dark at room temperature for 25 minutes. • Add compound solutions into the assay plate. • Set the assay plate in FDSS and placed an EFS device on the plate. • Measure EFS-induced fluorescent response by FDSS.
The data are analyzed and reported as normalized ratios of intensities measured at […]. The process of calculating these ratios is performed as follows:
This analysis is performed using a computerized specific program designed for FDSS generated data. Fluorescence ratio values are plotted using XLfit to determine an IC50 value for each compound.

human Nav1.7 channels = molecular target: T2, human Nav1.7 channels (Homo sapiens, UniProt Q15858); experiment: FRET assay, human Nav1.7 (EFS on FDSS); assay type: cell-based; conditions: CHO cells expressing human Nav1.7, read-out: IC50 against Nav1.7
T2 construct: expressed in transfected cells; host or cells: CHO
How it was run: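 IC50 was derived from normalized 440 nm fluorescence ratios of the EFS-evoked membrane-potential response read on FDSS. Recombinant CHO cells were sequentially dye-loaded with coumarin/oxonol FRET pair at room temperature in pH 7.4 buffer before compound addition.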

T2 sequence (Q15858 whole entry): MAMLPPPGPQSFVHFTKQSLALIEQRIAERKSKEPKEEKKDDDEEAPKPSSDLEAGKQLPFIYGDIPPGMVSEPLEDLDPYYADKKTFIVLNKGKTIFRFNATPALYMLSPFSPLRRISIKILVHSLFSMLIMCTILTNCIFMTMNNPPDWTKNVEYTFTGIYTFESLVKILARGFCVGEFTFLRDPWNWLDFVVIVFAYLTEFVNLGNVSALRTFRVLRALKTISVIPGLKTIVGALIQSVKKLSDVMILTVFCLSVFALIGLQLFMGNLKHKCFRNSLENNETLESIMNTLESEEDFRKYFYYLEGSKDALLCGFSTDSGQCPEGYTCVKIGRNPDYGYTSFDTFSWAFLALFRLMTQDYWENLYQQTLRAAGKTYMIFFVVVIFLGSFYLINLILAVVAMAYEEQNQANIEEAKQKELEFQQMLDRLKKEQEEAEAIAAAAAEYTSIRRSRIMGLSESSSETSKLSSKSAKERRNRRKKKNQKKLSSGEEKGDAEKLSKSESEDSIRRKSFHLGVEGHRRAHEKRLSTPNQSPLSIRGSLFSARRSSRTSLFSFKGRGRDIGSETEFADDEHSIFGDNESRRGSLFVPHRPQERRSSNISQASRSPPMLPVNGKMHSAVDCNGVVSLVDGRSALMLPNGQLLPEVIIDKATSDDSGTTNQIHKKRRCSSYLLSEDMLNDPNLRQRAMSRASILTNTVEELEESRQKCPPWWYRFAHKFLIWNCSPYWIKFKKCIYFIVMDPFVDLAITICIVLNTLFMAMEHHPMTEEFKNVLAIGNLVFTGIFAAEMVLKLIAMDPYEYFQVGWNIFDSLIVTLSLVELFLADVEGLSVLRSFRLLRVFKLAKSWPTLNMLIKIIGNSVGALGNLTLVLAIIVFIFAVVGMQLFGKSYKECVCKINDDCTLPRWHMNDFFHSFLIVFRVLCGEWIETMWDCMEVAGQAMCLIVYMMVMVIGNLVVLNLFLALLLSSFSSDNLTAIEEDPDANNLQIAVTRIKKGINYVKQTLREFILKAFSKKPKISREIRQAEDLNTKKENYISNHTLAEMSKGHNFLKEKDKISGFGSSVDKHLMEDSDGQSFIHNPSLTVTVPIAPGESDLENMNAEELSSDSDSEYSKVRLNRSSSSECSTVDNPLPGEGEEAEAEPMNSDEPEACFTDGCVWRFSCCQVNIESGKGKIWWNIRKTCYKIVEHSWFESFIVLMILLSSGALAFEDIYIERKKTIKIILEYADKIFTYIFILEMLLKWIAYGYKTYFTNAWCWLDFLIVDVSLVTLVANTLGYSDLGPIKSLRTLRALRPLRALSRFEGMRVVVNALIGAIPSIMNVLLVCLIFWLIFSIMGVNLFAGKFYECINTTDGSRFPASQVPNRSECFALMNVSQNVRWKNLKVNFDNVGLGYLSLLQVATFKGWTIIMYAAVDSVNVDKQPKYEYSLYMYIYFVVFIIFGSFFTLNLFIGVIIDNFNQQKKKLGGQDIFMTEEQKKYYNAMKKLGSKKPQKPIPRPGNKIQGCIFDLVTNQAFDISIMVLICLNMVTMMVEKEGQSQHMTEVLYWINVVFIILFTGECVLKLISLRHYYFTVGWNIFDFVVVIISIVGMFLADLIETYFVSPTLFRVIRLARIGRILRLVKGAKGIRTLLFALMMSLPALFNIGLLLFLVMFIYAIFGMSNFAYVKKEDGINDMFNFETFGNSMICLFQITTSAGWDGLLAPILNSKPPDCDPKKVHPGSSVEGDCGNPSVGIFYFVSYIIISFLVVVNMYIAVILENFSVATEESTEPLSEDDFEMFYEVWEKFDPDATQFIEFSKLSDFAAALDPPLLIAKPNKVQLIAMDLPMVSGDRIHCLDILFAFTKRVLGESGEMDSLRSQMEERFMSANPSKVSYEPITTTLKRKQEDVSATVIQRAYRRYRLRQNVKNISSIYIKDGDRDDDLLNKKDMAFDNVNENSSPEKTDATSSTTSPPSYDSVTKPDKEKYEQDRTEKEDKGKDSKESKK
T1 sequence (Q9NY46 whole entry): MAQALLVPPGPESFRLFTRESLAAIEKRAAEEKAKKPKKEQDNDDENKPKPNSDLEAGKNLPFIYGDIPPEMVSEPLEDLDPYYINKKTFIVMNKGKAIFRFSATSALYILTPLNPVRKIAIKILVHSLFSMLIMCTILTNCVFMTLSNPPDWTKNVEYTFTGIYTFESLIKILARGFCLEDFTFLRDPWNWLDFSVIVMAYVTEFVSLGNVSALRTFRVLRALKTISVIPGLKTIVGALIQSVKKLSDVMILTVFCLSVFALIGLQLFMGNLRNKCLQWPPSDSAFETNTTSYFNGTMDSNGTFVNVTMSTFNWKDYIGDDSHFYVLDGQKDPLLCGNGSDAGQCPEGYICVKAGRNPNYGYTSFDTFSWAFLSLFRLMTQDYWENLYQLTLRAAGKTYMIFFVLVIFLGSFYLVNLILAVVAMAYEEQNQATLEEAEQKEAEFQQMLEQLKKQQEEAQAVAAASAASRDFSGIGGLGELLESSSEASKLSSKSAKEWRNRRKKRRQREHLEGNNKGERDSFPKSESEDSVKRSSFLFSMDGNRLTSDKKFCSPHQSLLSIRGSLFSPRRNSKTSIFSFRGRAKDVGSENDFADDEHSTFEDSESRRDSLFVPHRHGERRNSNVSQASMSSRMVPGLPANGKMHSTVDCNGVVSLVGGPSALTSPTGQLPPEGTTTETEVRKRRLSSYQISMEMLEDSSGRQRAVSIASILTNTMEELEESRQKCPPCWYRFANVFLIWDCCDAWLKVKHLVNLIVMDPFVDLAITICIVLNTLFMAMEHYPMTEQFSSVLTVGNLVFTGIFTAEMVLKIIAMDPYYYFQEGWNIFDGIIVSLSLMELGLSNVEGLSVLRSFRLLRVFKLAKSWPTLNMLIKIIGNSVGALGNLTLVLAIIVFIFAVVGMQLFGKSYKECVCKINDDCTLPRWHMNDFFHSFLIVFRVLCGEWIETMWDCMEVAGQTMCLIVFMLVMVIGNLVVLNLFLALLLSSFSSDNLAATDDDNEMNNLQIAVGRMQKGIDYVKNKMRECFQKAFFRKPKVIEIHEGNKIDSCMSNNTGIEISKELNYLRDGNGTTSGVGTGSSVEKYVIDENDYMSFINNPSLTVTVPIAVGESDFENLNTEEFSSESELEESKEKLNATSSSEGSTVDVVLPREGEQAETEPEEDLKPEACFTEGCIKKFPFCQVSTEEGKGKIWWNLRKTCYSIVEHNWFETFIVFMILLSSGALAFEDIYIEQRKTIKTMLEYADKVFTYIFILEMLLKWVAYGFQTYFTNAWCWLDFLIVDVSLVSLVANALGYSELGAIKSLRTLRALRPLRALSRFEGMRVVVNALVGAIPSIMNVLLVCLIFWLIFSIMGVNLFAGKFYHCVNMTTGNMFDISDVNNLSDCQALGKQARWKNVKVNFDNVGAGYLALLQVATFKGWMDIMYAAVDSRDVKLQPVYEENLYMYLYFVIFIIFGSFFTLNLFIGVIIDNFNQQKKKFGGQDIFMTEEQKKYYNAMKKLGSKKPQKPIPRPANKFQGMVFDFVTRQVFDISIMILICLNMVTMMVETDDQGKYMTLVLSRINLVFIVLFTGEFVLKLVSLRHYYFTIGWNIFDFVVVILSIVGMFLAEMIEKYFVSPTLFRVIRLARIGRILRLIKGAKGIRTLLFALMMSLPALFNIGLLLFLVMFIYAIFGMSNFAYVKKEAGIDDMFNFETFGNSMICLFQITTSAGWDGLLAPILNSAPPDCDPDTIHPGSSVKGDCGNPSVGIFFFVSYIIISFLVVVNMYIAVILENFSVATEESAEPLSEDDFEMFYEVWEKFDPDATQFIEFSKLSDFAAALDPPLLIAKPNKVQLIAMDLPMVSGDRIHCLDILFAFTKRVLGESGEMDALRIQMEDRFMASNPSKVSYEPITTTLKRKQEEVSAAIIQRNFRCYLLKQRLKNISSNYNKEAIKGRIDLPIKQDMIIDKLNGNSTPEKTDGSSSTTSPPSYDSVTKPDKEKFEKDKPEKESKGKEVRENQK

SMILES	pIC50 (human Nav1.3 channels)	pIC50 (human Nav1.7 channels)
CC(C)C(=O)Nc1cc(C(=O)NC(C)c2ccc(OCC(F)(F)F)nc2)ccn1 (single isomer, unassigned) [Example 8, 2-isobutyramido-N-(1-(6-(2,2,2-trifluoroethoxy)pyridin-3-yl)ethyl)isonicotinamide]	> 6.00	> 6.00
Cc1cc(C(=O)NC(C)c2ccc(OCC(F)(F)F)nc2)cc(NC(=O)C(C)C)n1 (single isomer, unassigned) [Example 62, 2-isobutyramido-6-methyl-N-(1-(6-(2,2,2-trifluoroethoxy)pyridin-3-yl)ethyl)isonicotinamide]	> 6.00	> 6.00
CCC(=O)Nc1cc(C(=O)NC(C)c2cnc(OCC(F)(F)F)c(Cl)c2)ccn1 (single isomer, unassigned) [Example 69, N-(1-(5-chloro-6-(2,2,2-trifluoroethoxy)pyridin-3-yl)ethyl)-2-propionamidoisonicotinamide]	> 6.00	> 6.00
CC(=O)Nc1cc(C(=O)NC(C)c2cnc(OCC(F)(F)F)c(C)c2)ccn1 (single isomer, unassigned) [Example 85, 2-acetamido-N-(1-(5-methyl-6-(2,2,2-trifluoroethoxy)pyridin-3-yl)ethyl)isonicotinamide]	> 6.00	> 6.00
CCC(=O)Nc1cc(C(=O)NC(C)c2cnc(OCC(F)(F)F)c(C)c2)ccn1 (single isomer, unassigned) [Example 87, N-(1-(5-methyl-6-(2,2,2-trifluoroethoxy)pyridin-3-yl)ethyl)-2-propionamidoisonicotinamide]	> 6.00	> 6.00
Cc1cc(C(C)NC(=O)c2ccnc(NC(=O)C3CC3)c2)cnc1OCC(F)(F)F (single isomer, unassigned) [Example 89, 2-(cyclopropanecarboxamido)-N-(1-(5-methyl-6-(2,2,2-trifluoroethoxy)pyridin-3-yl)ethyl)isonicotinamide]	> 6.00	> 6.00
CCC(=O)Nc1cc(C(=O)N[C@H](C)c2cccc(C(F)(F)F)c2)cc(C)n1 (single isomer, unassigned) [Example 126]	> 6.00	> 6.00
CCC(=O)Nc1cc(C(=O)NC(C)c2cnc(OCC(F)(F)F)c(Cl)c2)cc(C)n1 (single isomer, unassigned) [Example 130, N-(1-(5-chloro-6-(2,2,2-trifluoroethoxy)pyridin-3-yl)ethyl)-2-methyl-6-propionamidoisonicotinamide]	> 6.00	> 6.00
CCC(=O)Nc1cc(C(=O)NC(C)c2cnc(OCC(F)(F)F)c(C)c2)cc(C)n1 (single isomer, unassigned) [Example 132, 2-methyl-N-(1-(5-methyl-6-(2,2,2-trifluoroethoxy)pyridin-3-yl)ethyl)-6-propionamidoisonicotinamide]	> 6.00	> 6.00
CCC(=O)Nc1cc(C(=O)NC(C)c2cccc(OC(F)(F)F)c2)cc(C)n1 (single isomer, unassigned) [Example 134, 2-methyl-6-propionamido-N-(1-(3-(trifluoromethoxy)phenyl)ethyl)isonicotinamide]	> 6.00	> 6.00
CCC(=O)Nc1cc(C(=O)NC(C)c2ccc(OCC(F)(F)F)cc2)cc(C)n1 (single isomer, unassigned) [Example 136, 2-methyl-6-propionamido-N-(1-(4-(2,2,2-trifluoroethoxy)phenyl)ethyl)isonicotinamide]	> 6.00	> 6.00
CCC(=O)Nc1cc(C(=O)NC(C)c2cccc(OCC(F)(F)F)n2)cc(C)n1 (single isomer, unassigned) [Example 139, 2-methyl-6-propionamido-N-(1-(6-(2,2,2-trifluoroethoxy)pyridin-2-yl)ethyl)isonicotinamide]	> 6.00	> 6.00
CCC(=O)Nc1nccc(C(=O)NC(C)c2cnc(OCC(F)(F)F)c(C)c2)n1 (single isomer, unassigned) [Example 223, N-(1-(5-methyl-6-(2,2,2-trifluoroethoxy)pyridin-3-yl)ethyl)-2-propionamidopyrimidine-4-carboxamide]	> 6.00	> 6.00
Cc1cc(C(C)NC(=O)c2ccnc(NC(=O)C3CC3)n2)cnc1OCC(F)(F)F (single isomer, unassigned) [Example 224, 2-(cyclopropanecarboxamido)-N-(1-(5-methyl-6-(2,2,2-trifluoroethoxy)pyridin-3-yl)ethyl)pyrimidine-4-carboxamide]	> 6.00	> 6.00
Cc1cc(C(C)NC(=O)c2ccnc(NC(=O)C(C)C)n2)cnc1OCC(F)(F)F (single isomer, unassigned) [Example 225, 2-isobutyramido-N-(1-(5-methyl-6-(2,2,2-trifluoroethoxy)pyridin-3-yl)ethyl)pyrimidine-4-carboxamide]	> 6.00	> 6.00
CC(C)C(=O)Nc1cc(C(=O)NCc2cccc(OC(F)(F)F)c2F)ccn1 [Example 750, N-(2-fluoro-3-(trifluoromethoxy)benzyl)-2-isobutyramidoisonicotinamide]	> 6.00	
Cc1cc(C(=O)NCc2cccc(OC(F)(F)F)c2F)cc(NC(=O)C(C)C)n1 [Example 752, N-(2-fluoro-3-(trifluoromethoxy)benzyl)-2-isobutyramido-6-methylisonicotinamide]	> 6.00	
Cc1cc(CNC(=O)c2ccnc(NC(=O)C3CC3)n2)ccc1OCC(F)(F)F [Example 779, 2-(cyclopropanecarboxamido)-N-(3-methyl-4-(2,2,2-trifluoroethoxy)benzyl)pyrimidine-4-carboxamide]	> 6.00	
O=C(NCc1cnc(OCC(F)F)c(C2CC2)c1)c1ccnc(NC(=O)C2CC2)n1 [Example 918, 2-(cyclopropanecarboxamido)-N-((5-cyclopropyl-6-(2,2-difluoroethoxy)pyridin-3-yl)methyl)pyrimidine-4-carboxamide]	> 6.00	
Cc1cc(C(=O)NCc2cnc(OCC(F)(F)F)c(Cl)c2)cc(NC(=O)CC2CC2)n1 [Example 956, N-((5-chloro-6-(2,2,2-trifluoroethoxy)pyridin-3-yl)methyl)-2-(2-cyclopropylacetamido)-6-methylisonicotinamide]	> 6.00	
Cc1cc(C(=O)NCc2cnc(OCC(F)(F)F)cc2C)cc(NC(=O)CC2CC2)n1 [Example 958, 2-(2-cyclopropylacetamido)-6-methyl-N-((4-methyl-6-(2,2,2-trifluoroethoxy)pyridin-3-yl)methyl)isonicotinamide]	> 6.00	
COc1nc(OCC(F)(F)F)ccc1CNC(=O)c1cc(C)nc(NC(=O)CC2CC2)c1 [Example 960, 2-(2-cyclopropylacetamido)-N-((2-methoxy-6-(2,2,2-trifluoroethoxy)pyridin-3-yl)methyl)-6-methylisonicotinamide]	> 6.00	
Cc1cc(C(=O)NCc2cccc(C(F)(F)F)c2)cc(NC(=O)CC2CC2)n1 [Example 961, 2-(2-cyclopropylacetamido)-6-methyl-N-(3-(trifluoromethyl)benzyl)isonicotinamide]	> 6.00	
CC(=O)Nc1cc(C(=O)NCc2ccc(OC(F)(F)F)c(Cl)c2)ccn1 [Example 967, 2-acetamido-N-(3-chloro-4-(trifluoromethoxy)benzyl)isonicotinamide]	> 6.00	
CCC(=O)Nc1cc(C(=O)NCc2ccc(OC(F)(F)F)c(Cl)c2)ccn1 [Example 968, N-(3-chloro-4-(trifluoromethoxy)benzyl)-2-propionamidoisonicotinamide]	> 6.00	
